Laboratory results from US9522130B2, “Use of miR-221 and 222 lowering agents to prevent cardiovascular disease in diabetic subjects” (priority 2013, dated 2016).
Entries after “also recorded” stand apart in the source; their conditions may differ.

What was measured:
[1] = tested on: miR-221/222; experiment: miR-221 and miR-222 levels in injured femoral arteries by quantitative real-time PCR; type: in vivo; conditions: diabetic mice; Pluronic gel on injured femoral artery; 7 days
Description: FIG. 7. Diabetes induces an increase in miR-221/222 levels in arteries. Total RNA was prepared from injured femoral arteries of diabetic and non-diabetic mice receiving a Pluronic gel containing either control oligonucleotide (NT) or 2′OMe-miR-222 (AS) for 7 days. Levels of miR-221 and miR-222 were measured using quantitative real-time PCR with U6 as a loading control. Data is normalized to the ND. Data represent the mean±SEM and † indicates p<0.05 by ANOVA using Tukey's HSD.

[2] = tested on: diabetic and non-diabetic mice; experiment: Femoral artery wire injury, neointima formation / intimal thickening; type: in vivo
Description: FIG. 1. Neointimal hyperplasia is increased in an mTOR-independent manner in diabetic mice. Femoral artery wire injury was performed in the mice in diabetic mice (DM) and non-diabetic mice […] and neointima formation was assessed at 14 days post-injury. […] Data represent the mean±SEM. † indicates p<0.05 by ANOVA with Tukey's HSD.
FIG. 10. Diabetes induces an increase in miR-221/222 that increases intimal thickening. Intimal thickening was measured in the wire injured femoral arteries of diabetic and non-diabetic mice receiving a Pluronic gel containing either control oligonucleotide (NT) or 2′OMe-miR-222 (AS) after 14 days. Data represent the mean±SEM and † indicates p<0.05 by ANOVA using Tukey's HSD.
FIG. 14. […] Mean intima:media ratios of ND and DM mice following femoral artery wire injury and implantation of a Pluronic-F 127 gel containing either vehicle or rapamycin (100 μg) with and without administration of the ERK pathway inhibitor, U0126 (7.5 mg/kg/d). Bars indicate p<0.05 by ANOVA.

[3] = tested on: p27^Kip1; experiment: p27Kip1 protein ELISA in injured femoral arteries; type: in vivo; conditions: diabetic mice; Pluronic gel on injured femoral artery; 7 days
Description: FIG. 9. Diabetes induces an increase in miR-221/222 that reduces p27^Kip1 levels in arteries Protein lysates were prepared from injured femoral arteries of diabetic and non-diabetic mice receiving a Pluronic gel containing either control oligonucleotide (NT) or 2′OMe-miR-222 (AS) after 7 days. Levels of p27^Kip1 protein levels were measured using an ELISA kit. Data is normalized to the ND. Data represent the mean±SEM and † indicates p<0.05 by ANOVA using Tukey's HSD.

[4] = tested on: miR-221/222; experiment: miR-221/222 levels in VSMCs incubated with AMPK agonist; type: cell-based; conditions: VSMCs from diabetic mice; 3 h incubation
Description: FIG. 11. The increase in miR-221/222 in VSMCs from the DM mice is reversed by AMPK activation. miR-221/222 levels were measured in VSMCs from non-diabetic and diabetic mice incubated with vehicle (Con) and the AMPK agonist, Metformin (Met) for 3 h. Data represent the mean±SEM.
FIG. 12. The increase in miR-221/222 in VSMCs from the DM mice is reversed by AMPK activation. miR-221/222 levels were measured in VSMCs from non-diabetic and diabetic mice incubated with vehicle (Con) and the AMPK agonist, AICAR for 3 h. Data represent the mean±SEM.

[5] = tested on: p27^Kip1 mRNA; experiment: Half-life of p27Kip1 mRNA in serum-stimulated VSMCs; type: cell-based; conditions: VSMCs from diabetic mice stimulated with serum
Description: FIG. 4. Increased ERK activation promotes loss of p27^Kip1 in diabetic mice. A) The ratio of phosphorylated (active) ERK to total ERK in the aortae of non-diabetic (ND) mice and diabetic mice receiving either vehicle (DM) or the ERK pathway inhibitor (DM+EI) U0126, ip, 7.5 mg/kg/d for 3 days). p27^Kip1 protein (B) and mRNA (C) levels in the same mice as in A. D and E) The half-life of p27^Kip1 mRNA in VSMCs from DM and ND mice stimulated with serum with and without the ERK pathway inhibitor PD98059 (D,PD) or siRNA targeting ERK (E, ERK siRNA). † indicate p<0.05 by ANOVA (B and D) or Student's t-test (E and F).

[6] = tested on: non-diabetic animals; conditions: previous reports (9); cited from earlier work
[7] = tested on: miR-221/222; conditions: diabetic mice; 3 d post-injury or sham
Description: FIG. 6. […] Femoral artery wire injury or sham procedure was performed in the non-diabetic (ND) and diabetic (DM) mice and miR-221 levels were measured 3d post-injury. A group of MF-12 mice (Sham+EI) received a MEK1 inhibitor (U0126, […]). Data represent the mean±SEM.

[8] = tested on: miR-221/222; experiment: miR-221/222 levels in internal mammary arteries of coronary artery bypass patients by real-time PCR; type: in vivo, human; conditions: diabetic patients currently taking metformin (DMMet+), coronary artery bypass surgery
Description: FIG. 13. miR-221/222 are reduced in the vasculature of diabetic patients taking the AMPK agonist metformin. miR-221/222 levels were measured using real-time PCR methods in the internal mammary arteries of non-diabetic (ND), diabetic subjects currently taking metformin (DMMet+), and diabetic subjects not taking metformin (DMMet−) undergoing coronary artery bypass surgery. […] Data represent the mean±SEM.

Molecule: 2′OMe-miR-222: silencing RNA, 2′-O-methylated, directly inhibiting miR-221/222; sequence 5′-ACCCAGUAGCCAGAUGUAGCU-3′ (likely SEQ ID NO 4) (all 2'-O-methyl, backbone not given here)
- miR-221/222 levels in the vasculature [1]: reduces miR-221/222 levels back to normal
- intimal thickening ([2]; diabetic mice, Pluronic gel on wire injured femoral artery, 14 days): effective at reducing intimal thickening in the diabetic mice to levels similar to that of normal mice
- p27Kip1 protein levels [3]: restores levels of p27^Kip1 protein to normal levels

Molecule: NC(=O)c1ncn([C@@H]2O[C@H](CO)[C@@H](O)[C@H]2O)c1N [AICAR]
- miR-221/222 levels in VSMCs [4]: effective in reducing miR-221/222 in the VSMCs from diabetic mice to levels similar to VSMCs from non-diabetic mice

Molecule: COc1cccc(-c2cc(=O)c3ccccc3o2)c1N [PD98059]
- accelerated degradation (half-life) of p27Kip1 mRNA [5]: effective at blocking the accelerated degradation
- cell proliferative aspect of intimal thickening following arterial injury [6]: not effective

Molecule: N#CC(=C(/N)Sc1ccccc1N)/C(C#N)=C(\N)Sc1ccccc1N [U0126]
- intimal hyperplasia following wire injury ([2]; diabetic mice, U0126 7.5 mg/kg/d): reduces intimal hyperplasia
- sensitivity of intimal thickening to rapamycin ([2]; diabetic mice, U0126 7.5 mg/kg/d co-administered with local rapamycin 100 μg, 7.5 mg/kg/day): restores sensitivity to rapamycin; also recorded: restores the ability of rapamycin to intimal thickening
- intimal thickening (intima:media ratio) ([2]; non-diabetic mice, U0126 7.5 mg/kg/d co-administered with local rapamycin): minimal effects
- increase in miR-221/222 levels in the vasculature [7]: blocked

Molecule: CN(C)C(=N)N=C(N)N [metformin]
- miR-221/222 levels in internal mammary arteries [8]: normal levels
- miR-221/222 levels in VSMCs [4]: effective in reducing miR-221/222 in the VSMCs from diabetic mice to levels similar to VSMCs from non-diabetic mice
